Reference: paper PMC7323874, “Vancomycin Resistance Is Overcome by Conjugation of Polycationic Peptides” (Angewandte Chemie (International Ed. in English), 2020)

Columns and labels:
[1] = system: Staphylococcus aureus USA300 LAC (MRSA) infected mice; assay: In vivo efficacy model in infected mice; conditions: female Balb/c mice, FU002 56.4 mg/kg body weight per day
E. coli ATCC 25922 = type: cell-based; conditions: median of at least triplicates on two different plates
Procedure: (§1) Antimicrobial testing – Microdilution
(§2) Antimicrobial testing was performed according to CLSI and EUCAST guidelines in microdilution.8-10 Therefore, all tested substances as well as controls were dissolved in water in different concentrations and serially diluted in MHB II (cation adjusted) on the 96-well plate. A logarithmic growing, overnight culture of the respective bacterial strain was used and adjusted to a McFarland corresponding to 1 × 10^8 cfu/ml. Afterwards the bacterial suspension was diluted to 1 ×10^6 cfu/ml and loaded on the 96-well polypropylene plates, resulting in a final bacterial concentration of 5 × 10^5 cfu/ml. After an incubation at 35 ± 1 °C for 18-20 hours (re-controlled after 24 hours) the MIC was determined as the lowest concentration without visible growth as described previously.11 For direct comparison of the tested substances, all results were calculated in mg/ml and mol/ml afterwards. […]
(§3) Resistance development in S. aureus was determined by passaging bacteria in increasing amounts of vancomycin, FU002 or, as control, fusidic acid. In principle, tubes with twofold dilutions of the compounds in 1 ml Muller Hinton broth were inoculated 1:100 with bacterial suspension. […]
(§4) For the validation of possible side effects provoked by the conjugates, the cytotoxic effect of the lead candidate FU002 on human cells was assessed in a colorimetric viability assay. […]

[2] = system: Staphylococcus aureus USA300; assay: Broth microdilution on vancomycin-sensitive strain; type: cell-based
Procedure: as §1, §2, §3, §4

[3] = system: human cell lines (blood, liver, kidney); assay: Cytotoxicity, XTT viability assay; type: cell-based; conditions: 64 µg/ml, 24 h incubation, three human cell lines (blood, liver, kidney)
P. aeruginosa ATCC 27853 = type: cell-based; conditions: median of at least triplicates on two different plates
Procedure: as §1, §2
(§5) As further control substance, the glycopeptide antibiotic teicoplanin was evaluated. […] Resistance development in S. aureus was determined by passaging bacteria in increasing amounts of vancomycin, FU002 or, as control, fusidic acid. […]
as §4

[4] = system: vancomycin-resistant strains (vanA, vanB and vanC); type: cell-based; conditions: all values, vanB and vanC resistance types
Procedure: as §1, §2, §5, §4

In the case of `CC(C)C[C@H](C(=O)N[C@H]1C(=O)N[C@@H](CC(N)=O)C(=O)N[C@H]2C(=O)N[C@H]3C(=O)N[C@H](C(=O)N[C@H](C(=O)O)c4cc(O)cc(O)c4-c4cc3ccc4O)[C@H](O)c3ccc(c(Cl)c3)Oc3cc2cc(c3O[C@@H]2O[C@H](CO)[C@@H](O)[C@H](O)[C@H]2O[C@H]2C[C@](C)(N)[C@H](O)[C@H](C)O2)Oc2ccc(cc2Cl)[C@H]1O)N(C)C(=O)C1CCC(CN2C(=O)CC(SC[C@H](NC(=O)[C@H](CCCNC(=N)N)NC(=O)[C@H](CCCNC(=N)N)NC(=O)[C@H](CCCNC(=N)N)NC(=O)[C@H](CCCNC(=N)N)NC(=O)[C@H](CCCNC(=N)N)NC(=O)[C@@H](N)CCCNC(=N)N)C(N)=O)C2=O)CC1` (stereo partly shown) [FU002], the “bacterial burden, colony forming units (CFU) in the liver” value ([1]; day 4 post infection, p < 0.05, Kruskal-Wallis test) is reported as “significant reduction of bacterial burden”, the “body weight of infected mice” value ([1]; i.v. infection, doses every 12 hours, start 2 hours p.i.) is reported as “No infection‐related body weight loss” and the MIC (E. coli ATCC 25922) is reported as at least 640 µg/mL. The “activity compared with vancomycin (MIC)” value [2] was “at least as active as vancomycin”, the cytotoxicity [3] was “no relevant cytotoxicity” and the MIC (P. aeruginosa ATCC 27853) was at least 640 µg/mL. The “MIC (minimum inhibitory concentration)” value [4] was “below 4 mg L^−1”.
